Tests used:
[1] = tested on: IPOHE (Morningglory, Ivyleaf); assay: Postemergence herbicidal evaluation; type: in vivo, Ipomoea hederacea; settings: postemergence
How it was run: (§1)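 Herbicidal effect was judged by eye on a 0–9 scale covering stand, vigor, deformity, size and chlorosis, compared with controls, four to five weeks after seedlings about two weeks old were sprayed (40 psi, ~0.0156–0.500 kg/ha).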

ABUTH (Velvetleaf) = assay: Preemergence herbicidal evaluation; type: in vivo, Abutilon theophrasti; settings: rated 4-5 weeks after treatment
How it was run: (§2)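 Greenhouse preemergence test: seed-soil mix sown on ~1 inch soil; aqueous acetone spray at equivalent of ~0.0156–0.500 kg/ha; greenhouse-held and watered; scored 0–9 visually at 4–5 weeks.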

[2] = tested on: CHEAL (Lambsquarters, Common); assay: Postemergence herbicidal evaluation; type: in vivo, Chenopodium album; settings: postemergence
How it was run: as §1

[3] = tested on: GLXMAW (Soybean, Williams); assay: Preemergence herbicidal evaluation; type: in vivo, Glycine max, (L.) Merr. cv Williams; settings: rated 4-5 weeks after treatment
How it was run: as §2

ECHCG (Barnyardgrass) = assay: Postemergence herbicidal evaluation; type: in vivo, Echinochloa crus-galli; settings: postemergence
How it was run: as §1

CASOB (Sicklepod) [4] = assay: Preemergence herbicidal evaluation; type: in vivo, Cassia obtusifolia; settings: rated 4-5 weeks after treatment
How it was run: as §2

[5] = tested on: GLXMAW (Soybean, Williams); assay: Postemergence herbicidal evaluation; type: in vivo, Glycine max, (L.) Merr. cv Williams; settings: postemergence
How it was run: as §1

ORYSAT (Rice, Tebonnet) = assay: Preemergence herbicidal evaluation; type: in vivo, Oryza sativa, (L.) Tebonnet; settings: rated 4-5 weeks after treatment
How it was run: as §2

[6] = tested on: CHEAL (Lambsquarters, Common); assay: Preemergence herbicidal evaluation; type: in vivo, Chenopodium album; settings: rated 4-5 weeks after treatment
How it was run: as §2

MOOVA (Monochoria) = assay: Preemergence weed control under flooded paddy conditions; type: in vivo, Monochoria vaginalis; settings: rated 3-4 weeks after treatment
How it was run: (§3)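 Visual injury scored 0-9 against control three to four weeks post-treatment, greenhouse-grown. Application: acetone/water (50/50) solutions dosed directly into flood water (1.5-3 cm over silt loam, planted top 0.5 cm), roughly 0.0313 to 0.500 kg/ha active ingredient.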

[7] = tested on: IPOHE (Morningglory, Ivyleaf); assay: Preemergence herbicidal evaluation; type: in vivo, Ipomoea hederacea; settings: rated 4-5 weeks after treatment
How it was run: as §2

[8] = tested on: TRZAWR (Wheat, Winter, cv Riband); assay: Postemergence herbicidal evaluation; type: in vivo, Triticum aestivum; settings: postemergence
How it was run: as §1

CASOB (Sicklepod) [9] = assay: Postemergence herbicidal evaluation; type: in vivo, Cassia obtusifolia; settings: postemergence
How it was run: as §1

[10] = tested on: SAGPY (Arrowhead (Pygmaea)); assay: Preemergence weed control under flooded paddy conditions; type: in vivo, Sagittaria pygmaea; settings: rated 3-4 weeks after treatment
How it was run: as §3

AMBEL (Ragweed, Common) [11] = assay: Postemergence herbicidal evaluation; type: in vivo, Ambrosia artemisifolia; settings: postemergence
How it was run: as §1

AMBEL (Ragweed, Common) [12] = assay: Preemergence herbicidal evaluation; type: in vivo, Ambrosia artemisifolia; settings: rated 4-5 weeks after treatment
How it was run: as §2

CCOC(=O)CN1C(=O)C(CC(=O)O)SC1=Nc1cc(N2C(=O)CC(C(F)(F)F)CC2=O)c(F)cc1Cl (stereo not drawn) [Compound 170, 2-{{2-Chloro-5-[2,6-dioxo-4-(trifluoromethyl)-piperidino]-4-fluorophenyl}imino}-4-oxo-3,5-thiazolidinediacetic acid, 3-ethyl ester]
5.0: Preemergence herbicidal rating GLXMAW ([3]; 0.1250 kg/ha) | Herbicidal rating TRZAWR ([8]; rate 0.0625 kg/ha) | herbicidal effect rating, SAGPY ([10]; 0.0313 kg/ha)
1.0: Preemergence herbicidal rating GLXMAW ([3]; 0.0156 kg/ha) | Herbicidal rating ECHCG (ECHCG (Barnyardgrass); rate 0.0156 kg/ha) | Herbicidal rating ECHCG (ECHCG (Barnyardgrass); rate 0.0313 kg/ha) | Herbicidal rating ECHCG (ECHCG (Barnyardgrass); rate 0.0625 kg/ha) | Herbicidal rating CASOB (CASOB (Sicklepod) [9]; rate 0.0625 kg/ha)
8.0: Preemergence herbicidal rating GLXMAW ([3]; 0.2500 kg/ha) | herbicidal effect rating, SAGPY ([10]; 0.1250 kg/ha)
3.0: Preemergence herbicidal rating CASOB (CASOB (Sicklepod) [4]; 0.1250 kg/ha) | Preemergence herbicidal rating CASOB (CASOB (Sicklepod) [4]; 0.2500 kg/ha) | Preemergence herbicidal rating IPOHE ([7]; 0.0156 kg/ha)
3.5: Herbicidal rating TRZAWR ([8]; rate 0.0156 kg/ha)
4.0: Herbicidal rating CHEAL ([2]; rate 0.0156 kg/ha) | Preemergence herbicidal rating GLXMAW ([3]; 0.0313 kg/ha) | Preemergence herbicidal rating GLXMAW ([3]; 0.0625 kg/ha) | Herbicidal rating TRZAWR ([8]; rate 0.0313 kg/ha) | Preemergence herbicidal rating AMBEL (AMBEL (Ragweed, Common) [12]; 0.0625 kg/ha)
6.0: Preemergence herbicidal rating ABUTH (ABUTH (Velvetleaf); 0.0313 kg/ha) | Preemergence herbicidal rating ORYSAT (ORYSAT (Rice, Tebonnet); 0.0625 kg/ha)
0.0: Preemergence herbicidal rating ABUTH (ABUTH (Velvetleaf); 0.0156 kg/ha) | Preemergence herbicidal rating CASOB (CASOB (Sicklepod) [4]; 0.0156 kg/ha) | Preemergence herbicidal rating CASOB (CASOB (Sicklepod) [4]; 0.0313 kg/ha) | Preemergence herbicidal rating CASOB (CASOB (Sicklepod) [4]; 0.0625 kg/ha) | Preemergence herbicidal rating ORYSAT (ORYSAT (Rice, Tebonnet); 0.0156 kg/ha) | Preemergence herbicidal rating ORYSAT (ORYSAT (Rice, Tebonnet); 0.0313 kg/ha) | Herbicidal rating CASOB (CASOB (Sicklepod) [9]; rate 0.0156 kg/ha) | Herbicidal rating CASOB (CASOB (Sicklepod) [9]; rate 0.0313 kg/ha) | Preemergence herbicidal rating AMBEL (AMBEL (Ragweed, Common) [12]; 0.0156 kg/ha) | Preemergence herbicidal rating AMBEL (AMBEL (Ragweed, Common) [12]; 0.0313 kg/ha)
7.0: Preemergence herbicidal rating ORYSAT (ORYSAT (Rice, Tebonnet); 0.1250 kg/ha) | Preemergence herbicidal rating IPOHE ([7]; 0.0313 kg/ha) | Preemergence herbicidal rating IPOHE ([7]; 0.1250 kg/ha)
9.0: Herbicidal rating IPOHE ([1]; rate 0.0156 kg/ha) | Herbicidal rating IPOHE ([1]; rate 0.0313 kg/ha) | Herbicidal rating IPOHE ([1]; rate 0.0625 kg/ha) | Preemergence herbicidal rating ABUTH (ABUTH (Velvetleaf); 0.0625 kg/ha) | Preemergence herbicidal rating ABUTH (ABUTH (Velvetleaf); 0.1250 kg/ha) | Preemergence herbicidal rating ABUTH (ABUTH (Velvetleaf); 0.2500 kg/ha) | Herbicidal rating CHEAL ([2]; rate 0.0313 kg/ha) | Herbicidal rating CHEAL ([2]; rate 0.0625 kg/ha) | Preemergence herbicidal rating ORYSAT (ORYSAT (Rice, Tebonnet); 0.2500 kg/ha) | Preemergence herbicidal rating CHEAL ([6]; 0.0156 kg/ha) | Preemergence herbicidal rating CHEAL ([6]; 0.0313 kg/ha) | Preemergence herbicidal rating CHEAL ([6]; 0.0625 kg/ha) | Preemergence herbicidal rating CHEAL ([6]; 0.1250 kg/ha) | Preemergence herbicidal rating CHEAL ([6]; 0.2500 kg/ha) | herbicidal effect rating, MOOVA (MOOVA (Monochoria); 0.0313 kg/ha) | herbicidal effect rating, MOOVA (MOOVA (Monochoria); 0.0625 kg/ha) | herbicidal effect rating, MOOVA (MOOVA (Monochoria); 0.1250 kg/ha) | herbicidal effect rating, MOOVA (MOOVA (Monochoria); 0.2500 kg/ha) | Preemergence herbicidal rating IPOHE ([7]; 0.2500 kg/ha) | herbicidal effect rating, SAGPY ([10]; 0.0625 kg/ha) | herbicidal effect rating, SAGPY ([10]; 0.2500 kg/ha) | Herbicidal rating AMBEL (AMBEL (Ragweed, Common) [11]; rate 0.0156 kg/ha) | Herbicidal rating AMBEL (AMBEL (Ragweed, Common) [11]; rate 0.0313 kg/ha) | Herbicidal rating AMBEL (AMBEL (Ragweed, Common) [11]; rate 0.0625 kg/ha) | Preemergence herbicidal rating AMBEL (AMBEL (Ragweed, Common) [12]; 0.1250 kg/ha) | Preemergence herbicidal rating AMBEL (AMBEL (Ragweed, Common) [12]; 0.2500 kg/ha)
7.5: Herbicidal rating GLXMAW ([5]; rate 0.0156 kg/ha) | Herbicidal rating GLXMAW ([5]; rate 0.0313 kg/ha) | Herbicidal rating GLXMAW ([5]; rate 0.0625 kg/ha)

From patent publication US20020137929A1, “1 - (3-heterocyclylphenyl) isothiourea, -isourea, -guanidine and -amidine herbicidal agents” (Intellectual Property Department, BASF Aktiengesellschaft, priority 1998, published 2002)
